From patent publication US10457707B2, “Substituted urea depsipeptide analogs as activators of the CLPP endopeptidase” (priority 2015, dated 2019)
≈ marks a conversion by molar mass, not a printed value. *1 amine or outer side, *2 acyl side, *3 side chain or, on linkers, in order; H or OH if unused. Where a SMILES comes first, the peptide text is derived from it. Bridges are numbered along the chain shown (N, C = ends). [ ]: non-standard residue; d: D form. The star is where a group is joined. ξ: configuration not given here. Phe(3,5-F2) = N[C@@H](Cc1cc(F)cc(F)c1)C(=O)O; Pro(4S-Me) = C[C@@H]1CN[C@H](C(=O)O)C1; ξPro(4S-Me) = C[C@@H]1CNC(C(=O)O)C1; NHPh(4-CF3) = FC(F)(F)c1ccc(N*)cc1; ξPro(4R-Me) = C[C@H]1CNC(C(=O)O)C1; NH(4-Me-phenyl) = Cc1ccc(N*)cc1; aThr = C[C@H](O)[C@H](N)C(=O)O; X5 = O=C(C1COCCN1[*:1])[*:2]; Pip = O=C(O)[C@@H]1CCCCN1; NMeA = CN[C@@H](C)C(=O)O; ξPip = O=C(O)C1CCCCN1; CO = O=C([*:1])[*:2]; ξP = O=C(O)C1CCCN1

Assays:
Type in all cases: cell-based
[1] = system: Staphylococcus aureus, USA 300 wherein ClpP is inactivated; test: Minimal inhibitory concentration assay
Outline: (§1)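 CLSI broth microdilution; 2-fold series from 200 μM final; inoculum ~10^5 cfu/mL; 37 °C, aerobic, overnight; visual MIC = lowest conc. without growth. The ClpP-inactivated USA 300 strain is the comparator for ClpP-dependent killing.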

[2] = system: Staphylococcus aureus, USA 300; test: Minimal inhibitory concentration assay; conditions: USA300, read-out: Minimal Inhibitory Concentrations S. aureus USA 300
Outline: as §1

[3] = system: Bacillus subtilis, ATCC 23857; test: Minimal inhibitory concentration assay (microbroth dilution); conditions: Bacillus subtilis, ATCC23857, read-out: Minimal Inhibitory Concentrations B. subtilis ATCC 23857
Outline: as §1

[4] = system: Staphylococcus aureus, ATCC 29213; test: as above; conditions: ATCC29213, read-out: Minimal Inhibitory Concentrations S. aureus ATCC 29213
Outline: as §1

[5] = system: Enterococcus faecalis, ATCC 33186; test: as above; conditions: Enterococcus faecalis, ATCC33186, read-out: Minimal Inhibitory Concentrations E. faecalis ATCC 33186
Outline: as §1

[6] = system: Staphylococcus aureus, NRS70; test: as above; conditions: Staphylococcus aureus, NRS70, read-out: Minimal Inhibitory Concentrations S. aureus NRS70
Outline: as §1

[7] = system: Vero (kidney epithelial cells; ATCC CCL-81); test: Cytotoxicity assay (CellTiter-Glo cell viability, 72 hours); conditions: Vero cells, 72 hours, growth inhibition; read-out: Cytotoxicity IC50
Outline: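 Vero cells, 5000/well, grown overnight at 37° C, 5% CO2 in DMEM with 10% FBS, then exposed to serial compound dilutions or DMSO for 72 hours. Viability read by CellTiter-Glo luminescence. IC50 from duplicate wells, reported as range over two independent experiments.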

[8] = system: Streptococcus pneumoniae, R6; test: Minimal inhibitory concentration assay; conditions: read-out: Minimal Inhibitory Concentrations S. pneumoniae R6
Outline: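 Microbroth dilution with two-fold serial compound dilutions in broth, incubated aerobically overnight at 37° C. MIC taken as the lowest concentration preventing bacterial growth.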

[9] = system: Streptococcus pyogenes, ATCC 700294; test: Minimal inhibitory concentration assay (microbroth dilution); conditions: Streptococcus pyogenes, ATCC700294, read-out: Minimal Inhibitory Concentrations S. pyogenes ATCC 700294
Outline: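 CLSI broth microdilution: two-fold serial compound dilutions in appropriate broth, inoculated and incubated aerobically overnight at 37° C. MIC read visually as lowest concentration preventing bacterial growth.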

Row | Structure (SMILES) | Minimal Inhibitory Concentrations S. aureus USA 300 ΔClpP [1] [µM] | MIC [2] [µM] | MIC [3] [µM] | MIC [4] [µM] | MIC [5] [µM] | MIC [6] [µM] | IC50 [7] [µM] | MIC [8] [µM] | MIC [9] [µM]
1 | Cc1ccc(NC(=O)N[C@@H](Cc2cc(F)cc(F)c2)C(=O)N[C@@H]2C(=O)N3CCC[C@H]3C(=O)N3CCCC[C@H]3C(=O)N[C@@H](C)C(=O)N3C[C@@H](C)C[C@H]3C(=O)O[C@H]2C)cc1 [Compound 18, (S)-3-(3,5-difluorophenyl)-2-(3-(p-tolyl)ureido)-N-((2R,6S,8aS,14aS,20S,21S,23aS)-2,6,21-trimethyl-5,8,14,19,23-pentaoxooctadecahydro-1H,5H,14H,19H-pyrido[2,1-i]dipyrrolo[2,1-c:2′,1′-l][1]oxa[4,7,10,13]tetraazacyclohexadecin-20-yl)propanamide] ({NH(4-Me-phenyl)-CO}-[Phe(3,5-F2)][aThr]P[Pip]A[Pro(4S-Me)]; ester 2-C) | 100 | 0.1 (≈ 0.0808 µg/mL) | < 0.1 | 0.1 (≈ 0.0808 µg/mL) | 0.8 (≈ 0.646 µg/mL) | 0.1 (≈ 0.0808 µg/mL) | 26.7 ± 3.6 | < 0.1 | < 0.1
2 | Cc1ccc(NC(=O)N[C@@H](Cc2cc(F)cc(F)c2)C(=O)N[C@@H]2C(=O)N3CCC[C@H]3C(=O)N3CCCC[C@H]3C(=O)N[C@@H](C)C(=O)N3CCC[C@H]3C(=O)O[C@H]2C)cc1 [Compound 15, (S)-3-(3,5-difluorophenyl)-N-((6S,8aS,14aS,20S,21S,23aS)-6,21-dimethyl-5,8,14,19,23-pentaoxooctadecahydro-1H,5H,14H,19H-pyrido[2,1-i]dipyrrolo[2,1-c:2′,1′-l][1]oxa[4,7,10,13]tetraazacyclohexadecin-20-yl)-2-(3-(p-tolyl)ureido)propanamide] ({NH(4-Me-phenyl)-CO}-[Phe(3,5-F2)][aThr]P[Pip]AP; ester 2-C) | 100 | < 0.1 | < 0.1 | 0.6 (≈ 0.476 µg/mL) | 0.3 (≈ 0.238 µg/mL) | 0.3 (≈ 0.238 µg/mL) | 39.7 ± 6.6 | 0.3 (≈ 0.238 µg/mL) | 0.6 (≈ 0.476 µg/mL)
3 | Cc1ccc(NC(=O)N[C@@H](Cc2ccccc2)C(=O)N[C@H]2COC(=O)[C@@H]3C[C@@H](C)CN3C(=O)[C@H](C)NC(=O)[C@@H]3CCCCN3C(=O)[C@@H]3CCCN3C2=O)cc1 [Compound 23, (S)—N-((2R,6S,8aS,14aS,20S,23aS)-2,6-dimethyl-5,8,14,19,23-pentaoxooctadecahydro-1H,5H,14H,19H-pyrido[2,1-i]dipyrrolo[2,1-c:2′,1′-l][1]oxa[4,7,10,13]tetraazacyclohexadecin-20-yl)-3-phenyl-2-(3-(p-tolyl)ureido)propanamide] | – | 0.1 (≈ 0.0758 µg/mL) | < 0.2 | 0.4 (≈ 0.303 µg/mL) | < 0.2 | 0.4 (≈ 0.303 µg/mL) | 74 ± 7.7 | < 0.2 | < 0.2
4 | C[C@@H]1NC(=O)[C@@H]2CCCCN2C(=O)[C@@H]2CCCN2C(=O)[C@@H](NC(=O)[C@H](Cc2cc(F)cc(F)c2)NC(=O)Nc2ccc(C(F)(F)F)cc2)[C@H](C)OC(=O)[C@@H]2CCCN2C1=O [Compound 16, (S)-3-(3,5-difluorophenyl)-N-((6S,8aS,14aS,20S,21S,23aS)-6,21-dimethyl-5,8,14,19,23-pentaoxooctadecahydro-1H,5H,14H,19H-pyrido[2,1-i]dipyrrolo[2,1-c:2′,1′-l][1]oxa[4,7,10,13]tetraazacyclohexadecin-20-yl)-2-(3-(4-(trifluoromethyl)phenyl)ureido)propanamide] ({NHPh(4-CF3)-CO}-[Phe(3,5-F2)][aThr]P[Pip]AP; ester 2-C) | 3.1 | 0.8 (≈ 0.678 µg/mL) | 0.4 (≈ 0.339 µg/mL) | 0.4 (≈ 0.339 µg/mL) | < 0.1 | 0.8 (≈ 0.678 µg/mL) | 74.3 ± 9 | 0.8 (≈ 0.678 µg/mL) | 1.5 (≈ 1.27 µg/mL)
5 | Cc1ccc(NC(=O)N[C@@H](Cc2cc(F)cc(F)c2)C(=O)N[C@@H]2C(=O)N3CCCC3C(=O)N(C)[C@@H](C)C(=O)N[C@@H](C)C(=O)N3C[C@@H](C)CC3C(=O)O[C@H]2C)cc1 (stereo partly drawn) [Compound 26, (2S)-3-(3,5-difluorophenyl)-N-((2S,6S,9S,11aS,17S,18S)-2,6,9,10,18-pentamethyl-5,8,11,16,20-pentaoxohexadecahydro-1H,5H,16H-dipyrrolo[2,1-c:2′,1′-l][1]oxa[4,7,10,13]tetraazacyclohexadecin-17-yl)-2-(3-(p-tolyl)ureido)propanamide] ({NH(4-Me-phenyl)-CO}-[Phe(3,5-F2)][aThr][ξP][NMeA]A[ξPro(4S-Me)]; ester 2-C) | 200 | 0.39 (≈ 0.305 µg/mL) | 0.03 (≈ 0.0235 µg/mL) | 0.2 (≈ 0.156 µg/mL) | – | 0.2 (≈ 0.156 µg/mL) | 40.5 ± 3.8 | 0.125 (≈ 0.0977 µg/mL) | 0.5 (≈ 0.391 µg/mL)
6 | Cc1ccc(NC(=O)N[C@@H](Cc2ccccc2)C(=O)N[C@H]2COC(=O)C3C[C@H](C)CN3C(=O)[C@H](C)NC(=O)C3CCCCN3C(=O)C3CCCN3C2=O)cc1 (stereo partly drawn) [Compound 43, (S)—N-((2S,6S,8aS,14aS,20S,23aS)-2,6-dimethyl-5,8,14,19,23-pentaoxooctadecahydro-1H,5H,14H,19H-pyrido[2,1-i]dipyrrolo[2,1-c:2′,1′-l][1]oxa[4,7,10,13]tetraazacyclohexadecin-20-yl)-3-phenyl-2-(3-(p-tolyl)ureido)propanamide] | >200 | 3.1 (≈ 2.35 µg/mL) | 0.4 (≈ 0.303 µg/mL) | 1.6 (≈ 1.21 µg/mL) | – | 1.6 (≈ 1.21 µg/mL) | 74.5 ± 8.8 | 0.2 (≈ 0.152 µg/mL) | 0.8 (≈ 0.606 µg/mL)
7 | C[C@H]1C[C@H]2C(=O)O[C@@H](C)[C@H](NC(=O)[C@H](Cc3cc(F)cc(F)c3)NC(=O)Nc3ccc(C(F)(F)F)cc3)C(=O)N3CCC[C@H]3C(=O)N3CCCC[C@H]3C(=O)N[C@@H](C)C(=O)N2C1 [Compound 19, (S)-3-(3,5-difluorophenyl)-2-(3-(4-(trifluoromethyl)phenyl)ureido)-N-((2R,6S,8aS,14aS,20S,21S,23aS)-2,6,21-trimethyl-5,8,14,19,23-pentaoxooctadecahydro-1H,5H,14H,19H-pyrido[2,1-i]dipyrrolo[2,1-c:2′,1′-l][1]oxa[4,7,10,13]tetraazacyclohexadecin-20-yl)propanamide] ({NHPh(4-CF3)-CO}-[Phe(3,5-F2)][aThr]P[Pip]A[Pro(4S-Me)]; ester 2-C) | 6.2 | 0.1 (≈ 0.0862 µg/mL) | < 0.1 | 0.1 (≈ 0.0862 µg/mL) | 0.39 (≈ 0.336 µg/mL) | 0.1 (≈ 0.0862 µg/mL) | 36.8 ± 4.1 | 0.8 (≈ 0.689 µg/mL) | 0.4 (≈ 0.345 µg/mL)
8 | Cc1ccc(NC(=O)N[C@@H](Cc2cc(F)cc(F)c2)C(=O)N[C@@H]2C(=O)N3CCCC3C(=O)N3CCCCC3C(=O)N[C@@H](C)C(=O)N3C[C@H](C)CC3C(=O)O[C@H]2C)cc1 (stereo partly drawn) [Compound 39, (S)-3-(3,5-difluorophenyl)-2-(3-(p-tolyl)ureido)-N-((2R,6S,8aS,14aS,20S,21S,23aS)-2,6,21-trimethyl-5,8,14,19,23-pentaoxooctadecahydro-1H,5H,14H,19H-pyrido[2,1-i]dipyrrolo[2,1-c:2′,1′-l][1]oxa[4,7,10,13]tetraazacyclohexadecin-20-yl)propanamide] ({NH(4-Me-phenyl)-CO}-[Phe(3,5-F2)][aThr][ξP][ξPip]A[ξPro(4R-Me)]; ester 2-C) | 100 | 0.05 (≈ 0.0404 µg/mL) | 0.02 (≈ 0.0162 µg/mL) | 0.05 (≈ 0.0404 µg/mL) | – | 0.05 (≈ 0.0404 µg/mL) | 40 ± 4.1 | 0.05 (≈ 0.0404 µg/mL) | 0.2 (≈ 0.162 µg/mL)
9 | Cc1ccc(NC(=O)N[C@@H](Cc2cc(F)cc(F)c2)C(=O)N[C@@H]2C(=O)N3CCCC3C(=O)N3CCOCC3C(=O)N[C@@H](C)C(=O)N3C[C@@H](C)CC3C(=O)O[C@H]2C)cc1 (stereo partly drawn) [Compound 33, (S)-3-(3,5-difluorophenyl)-2-(3-(p-tolyl)ureido)-N-((6aS,12S,13S,15aS,17S,21S,23aS)-13,17,21-trimethyl-6,11,15,20,23-pentaoxooctadecahydro-6H,11H,15H-[1,4]oxazino[3,4-i]dipyrrolo[2,1-c:2′,1′-l][1]oxa[4,7,10,13]tetraazacyclohexadecin-12-yl)propanamide] ({NH(4-Me-phenyl)-CO}-[Phe(3,5-F2)][aThr][ξP][X5]A[ξPro(4S-Me)]; ester 2-C) | 200 | 0.2 (≈ 0.162 µg/mL) | 0.2 (≈ 0.162 µg/mL) | 0.2 (≈ 0.162 µg/mL) | – | 0.1 (≈ 0.081 µg/mL) | 41 ± 4.3 | 0.098 (≈ 0.0794 µg/mL) | 0.39 (≈ 0.316 µg/mL)
